Test results from patent US20130158014A1, “METHOD FOR TREATING DISEASES ASSOCIATED WITH ALTERATIONS IN CELLULAR INTEGRITY USING RHO KINASE INHIBITOR COMPOUNDS” (priority 2008, published 2013).

Experiments:
[1] = test system: ova-sensitized, ova-challenged mice; test: Mouse ovalbumin sensitization model: eosinophils in BALF; format: in vivo
Experimental: (§1) Male BALB/c mice were ordered from Charles River Laboratories (Raleigh, N.C.). The animals were approximately 19 to 21 grams at time of receipt. Upon arrival, the animals were randomized into groups of five males per cage and assigned to a dosing group. Animals were quarantined for 7 days under test conditions. They were observed daily for general health status and ability to adapt to the water bottles. Animals were sensitized on day 0 and 14 of study by an intraperitoneal injection with 20 μg of ovalbumin (ova) and 2.0 mg aluminum hydroxide (alum) which initiates the development of a specific T-helper (Th) cells type 2 resulting in asthmatic animals (denoted as Ova in the figures). One group of animals received an injection of saline to use as control animals (denoted as normal in the figures). All animals were challenged with aerosolized 1% ova once daily for 25 minutes on days 28, 29, and 30 (Zosky, et al. Respiratory Research. 2004; 5:15). Aerosol challenge consists of using an Aerogen Aeroneb nebulizer and controller with a particle size of 4-6 μm mass median aerodynamic diameter (MMAD) with a distribution of 400 μl per minute. This aerosol challenge is necessary to target the Th2-driven allergic inflammation in the lower airways. […]
(§2) Bronchoalveolar lavage fluid (BALF) was collected by infusing 3.0 ml of saline with 10% fetal calf serum into the lungs via the trachea and then withdrawing the fluid. The total amount of cells/ml of BALF fluid was determined via manual cell count on hemocytometer. The BALF was centrifuged, supernatant removed and analyzed for cytokine concentrations as described below, and cell pellet reconstituted in 500 μL of fluid. […] Following Hema3 stain, relative percentages of individual leukocytes were determined on a 200 cell count for each sample. The final concentration of individual leukocyte cell types per ml of BALF was determined by multiplication of the relative percentage of individual leukocytes with the total amount of cells/ml of BALF fluid.

[2] = test system: ova-sensitized, ova-challenged mice; test: Mouse ovalbumin sensitization model: cytokines (IL-5, Eotaxin, IL-13) in BALF; format: in vivo; settings: oral on days 27 to 31
Experimental: as §1, with “5:15).” for “5:15). Aerosol challenge consists of using an Aerogen Aeroneb nebulizer and controller with a particle size of 4-6 μm mass median aerodynamic diameter (MMAD) with a distribution of 400 μl per minute. This aerosol challenge is necessary to target the Th2-driven allergic inflammation in the lower airways.”
as §2
The concentrations of cytokines in the BALF samples were determined using commercially available Bio-plex kits (Bio-Rad) for the detection of mouse IL-5, IL-13, and Eotaxin. The analysis of cytokine levels was measured using the Bio-Plex 200 (Bio-Rad) system according to the manufacturer's instructions.

[3] = test system: ova-sensitized, ova-challenged mice; test: Prevention of airway hyperreactivity (Penh, methacholine) in mouse ovalbumin model; format: in vivo
Experimental: The anti-inflammatory dosing paradigm consists of dosing the animals once a day starting on day 27 and finishing on either day 30 or 31 (1 hr prior to the aerosolized ovalbumin challenges on days 28 to 30) but not on day 32 when hyperreactivity evaluation occurs. […] Exposure to the methacholine doses consisted of a 3 minute period during which a nebulizer was aerosolizing the methacholine and an additional 3 minute period following the cessation of nebulization. […] Enhanced pause (Penh), a unitless index of airway hyperreactivity, is derived from the expiratory side of the respiratory waveform measured via the plethysmograph and is used as an indirect measure of airway resistance and hyperreactivity. […] Following the methacholine dose response, BALF was collected and all animals were anesthetized, bled and euthanized. […] The Penh value at each of the dose levels of methacholine represents the 6-minute average response. Change from baseline (CFB) in Penh was calculated at each methacholine dose and the area under the curve (AUC) for these CFB values was calculated using the trapezoidal rule. This same approach was applied for each mouse across multiple experiments. […] Data from equal experimental conditions across experiments performed on different days were pooled for statistical analysis and data reporting. […] A random intercept for each experiment was assumed to account for possible similarities of the results obtained from a given experiment (i.e., as a “blocking effect”). […] For FIG. 9, linear AUC values from compound treated mice were reported as a percent of linear AUC values from vehicle-treated ovalbumin-sensitized/ovalbumin-challenged (asthmatic) mice.

murine eosinophils = test: Murine eosinophil chemotaxis (eotaxin-induced); format: cell-based, mouse; settings: 10 nM eotaxin challenge, one hour; FIG. 10
Experimental: Bronchoalveolar lavage was collected from ovalbumin sensitized and challenged mice in a volume of 2.5 mL lavage buffer. The lavage buffer was 0.9% saline with 10% fetal bovine serum. The pooled lavages were maintained on ice until use. The murine eosinophils were isolated using MACS cell separation (Miltenyi Biotech) by depletion of B cells and T cells by positive selection following incubation with antibody conjugated magnetic beads specific for CD45-R (B220) and CD90 (Thy 1.2), which bind B cells and T cells, respectively.
Eosinophil chemotaxis was assessed using a modified Boyden Chamber (Neuroprobe, 96-well) with a 5 μm pore membrane. The ability of the tested compounds to block chemotaxis induced by a 10 nM eotaxin challenge (mouse) or 1 nM eotaxin challenge (human) during one hour incubation at 37° C. with 5% CO2 was assessed. Chemotaxis was quantified via microscopy by counting the number of migrated cells in at least 3 view fields per treatment. […] FIG. 11 demonstates that chemotaxis was induced by eotaxin in human eosinophils.

human eosinophils = test: Human eosinophil chemotaxis (eotaxin-induced); format: cell-based; settings: 1 nM eotaxin challenge, one hour; FIG. 11
Text: Peripheral blood from healthy human volunteers was collected and the PMNs separated via Ficoll-paque density centrifugation followed by hypotonic lysis of the red blood cells. Subsequently, the human eosinophils were isolated from the cell suspension via StemCell Technologies Human Eosinophil Enrichment kit (Cat. No 19256) according to the manufacturer's recommendations. Briefly, unwanted cells were specifically labeled with dextran-coated magnetic nanoparticles using bispecific Tetrameric Antibody Complexes (TAC) directed against cell surface antigens on human blood cells: […] The unwanted cells are then separated from the unlabelled eosinophils using the EasySep® magnetic isolation procedure. […] FIG. 11 demonstates that chemotaxis was induced by eotaxin in human eosinophils.

LPS-challenged mice [4] = test: LPS-induced neutrophilia assay; format: in vivo, mouse; settings: intratracheal 0.5-50 μmol/kg one hour prior to LPS challenge; BALF four hours after; FIG. 12
Experimental: (§3) Male BALB/c mice, approximately 19 to 21 grams, were ordered from Charles River Laboratories (Raleigh, N.C.). All animals were challenged with aerosolized LPS (10 μg/ml) for 25 minutes on study day 0. LPS aerosol was generated using an Aerogen Aeroneb nebulizer and controller providing a flow of 400 μl/min and a particle size of 2-4 μm MMAD. Rolipram was administered i.p at 20 mg/kg. […] Total cell counts were determined using the Coulter Counter. For differential evaluations, BALF was centrifuged and cytospin slides prepared and stained […]. Manual leukocyte counts were then completed on 200 cells. The final concentration of individual leukocyte cell types per ml of BALF was determined by multiplication of the relative percentage of individual leukocytes with the total amount of cells/ml of BALF fluid. The concentration of IL-1β in the BALF samples was determined using commercially available Bio-plex kits (Bio-Rad).

LPS-challenged mice [5] = test: LPS-induced cytokine production assay (IL-1β in BALF); format: in vivo, mouse; settings: intratracheal, one hour prior to LPS challenge; BALF four hours after; FIG. 13
Experimental: as §3

[6] = Rat oral pharmacokinetics (plasma); format: in vivo; settings: rat oral PK, mean n = 3 rats, 20-30 μmmol/kg
Experimental: Plasma (EDTA K2 anticoagulant) was collected from male, cannulated, CD Sprague Dawley rats to determine the pharmacokinetics of formulations containing compound inhibitors of Rho kinase. Each animal was dosed orally with a 4 ml/kg solution or suspension of each test compound in 10 mM acetate buffered saline, pH 4.5 at a final concentration range of 20-30 μmmol/kg. Blood was collected at 0.25, 0.5, 1, 2, 4, 6, 8, and 24 hours. Plasma samples were assayed for the concentration of the test compound using an on-line, solid phase extraction LC/MS/MS analysis system.
Samples were analyzed on a QSTAR Elite, hybrid quadrupole time-of-flight mass spectrometer (Applied Biosystems, Framingham, Mass.) coupled with a Symbiosis Pharma integrated, on-line SPE-HPLC system (Spark Holland Inc., Plainsboro, N.J.). Analyst QS 2.0 software was used for instrument control, data acquisition and processing. […] Mobile Phase A consisted of 0.1% ammonium hydroxide in water and Mobile Phase B consisted of 0.1% formic acid in acetonitrile. Pharmacokinetic analyses were performed using WinNonlin software version 5.2 (Pharsight Corporation, Mountain View, Calif.).
As determined from the plasma concentration versus time curves, the time to peak and peak exposure are represented by the values Tmax and Cmax, respectively. The AUC values (nM*hr) shown were calculated as the areas under the plasma concentration versus time curves from time zero through the time of the last observable value and represent the total exposure of the compound over the course of the study. Half-life values or the amount of time required for the plasma levels of the compound to decline to half the initial value are represented as t1/2.

CS(=O)(=O)Nc1cccc(CN2CC[C@@H](Nc3cccc4cnccc34)C2)c1 [Compound 2.038]
eosinophils per ml of BALF ([1]; dosed orally once a day, day 27 to day 31, FIG. 4): reduced | concentration of IL-5 in BALF ([2]; FIG. 6): reduced levels | concentration of Eotaxin in BALF ([2]; FIG. 7): reduced levels | concentration of IL-13 in BALF ([2]; FIG. 8): reduced levels | airway hyperreactivity to methacholine on Day 32 ([3]; oral 15 μMol/kg once a day, days 27 to 31): prevention of airway hyperreactivity | murine eosinophil chemotactic response (murine eosinophils): inhibited | human eosinophil chemotactic response (human eosinophils): inhibited

CS(=O)(=O)Nc1cccc(CN2CCC[C@H](Nc3ccc4[nH]ncc4c3)C2)c1 [Compound 1.091]
eosinophils in BALF ([1]; dosed i.t. once a day, day 27 to day 30, FIG. 5): reduction of eosinophils | airway hyperreactivity ([3]; intratracheal once a day, days 27 to 30, FIG. 9): prevention of airway hyperreactivity | pulmonary neutrophilia influx (LPS-challenged mice [4]): significant reduction | IL-1β in BALF (LPS-challenged mice [5]): reduction | AUC (0-last) [6]: BLQ | Cmax [6]: BLQ | Tmax [6]: BLQ | Vz_F [6]: BLQ | t½ [6]: BLQ
